Experimental data: US8334258B2, “Method for induction and enhancement of apoptosis in tumor cells” (Georg-August-Universität Göttingen Stiftung Öffentlichen …, priority 2006, dated 2012)
Square brackets hold non-standard residues; d marks the D form. pGlu = O=C1CC[C@@H](C(=O)O)N1

What was measured:
[1] = tested on: MCF-7 breast cancer cell line; assay: Apoptosis assay, flow cytometric analysis of DNA degradation (propidium iodide); type: cell-based, human; conditions: MCF-7, FIG. 1 (B)
cancer cells = conditions: Gründker et al. 2004; cited from earlier work

[D-Lys^6]GnRH-II ([pGlu]HWSH[dK]WYPG-NH2; SMILES NCCCC[C@@H](NC(=O)[C@H](Cc1c[nH]cn1)NC(=O)[C@H](CO)NC(=O)[C@H](Cc1c[nH]c2ccccc12)NC(=O)[C@H](Cc1c[nH]cn1)NC(=O)[C@@H]1CCC(=O)N1)C(=O)N[C@@H](Cc1c[nH]c2ccccc12)C(=O)N[C@@H](Cc1ccc(O)cc1)C(=O)N1CCC[C@H]1C(=O)NCC(N)=O) [GnRH-II agonist]
induction of apoptotic cell death by GnRH-II agonist [1]: did not induce apoptotic cell death
antiproliferative effects after GnRH-I receptor knock-out (cancer cells): still existing
